Counter-ions that a name gives are not always drawn.
What was measured:
Type in all cases: biochemical
[1] = biological target: T1, norepinephrine (NE) uptake (Rattus norvegicus, UniProt Q63380); experiment: Inhibition of [3H]-norepinephrine uptake in rat whole brain or hypothalamic synaptosomes; settings: [3H]-NE 50 nM
T1 construct: Either whole brain minus cerebella or hypothalamus is weighed and homogenized in 9 volumes of ice-cold 0.32 M sucrose; from tissue; host or cells: rat whole brain minus cerebella or hypothalamus, crude synaptosomal supernatant (S1)
Method: Inhibition of [^3H]-Norepinephrine Uptake in Rat Whole Brain or Hypothalamic Synaptosomes
This assay is used as a biochemical screen for potential antidepressants which block norepinephrine uptake.
(§1) A. Animals: Male CR Wistar rats (100-125 g).
(§2) 1. Krebs-Henseleit Bicarbonate Buffer, pH 7.4 (KHBB): Make a 1 liter batch, containing the following salts.
Aerate for 60 minutes with 95% O2/5% CO2, check pH (7.4±0.1); then add bovine serum albumin (Sigma cat#A-7906) 1 mg/ml. 2. 0.32M Sucrose: 21.9 g of sucrose, bring to 200 ml. 3. L(-)-Norepinephrine bitartrate is obtained from Sigma Chemical Co. A 0.1 mM stock solution is made up in 0.01 N HCl. This is used to dilute the specific activity of theradiolabeled NE. 4. Levo-[Ring-2,5,6-^3H]-Norepinephrine (40-50 Ci/mmol) is obtained from New England Nuclear. The final desired concentration of [^3H]-NE in the assay is 50 nM. The dilution factor is 0.8. Therefore, the KHBB is made up to contain 62.5 nM [^3H]-NE. Add to 100 ml of KHBB.
(§3) 5. For most assays, a 1 mM stock solution of the test compound is made up in a suitable solvent and serially diluted such that the final concentration in the assay ranges from 2 x 10^-8 to 2 x 10^-5 M. Seven concentrations are used for each assay. Higher or lower concentrations may be used depending on the potency of the compound.
(§4) Male Wistar rats are decapitated and the brain rapidly removed. Either whole brain minus cerebella or hypothalamus is weighed and homogenized in 9 volumes of ice-cold 0.32 M sucrose using a Potter-Elvejhem homogenizer. Homogenization should be done with 4-5 up and down strokes at medium speeds to minimize synaptosome lysis. TH homogenate is centrifuged at 1000 g for 10 minutes at 0° 4°C. The supernatant (S1) is decanted and is used for uptake experiments.
• 800 µl KHBB [^3H]-NE • 20 µl Vehicle or appropriate drug concentration • 200 µl Tissue suspension
Tubes are incubated at 37°C, under a 95% O2/5% CO2 atmosphere for 5 minutes. For each assay, 3 tubes are incubated with 20 µl of vehicle at 0°C in a ice bath. After incubation all tubes are immediately centrifuged at 4000 g for 10 minutes. The supernatant fluid is aspirated and the pellets dissolved by adding 1 ml of solubilizaer (Triton® X-100 + 50% EtOH, 1:4 v/v). The tubes are vigorously shaken decanted into scientillation vials, and counted in 10 ml of Liquiscint® scintillation countering cocktail. Active uptake is the difference between cpm at 37°C. and 0°C. The percent inhibition at each drug concentration is the mean of three determinations IC50 values are derived from log-probit analysis.

[2] = biological target: T2, serotonin (5HT) uptake (Rattus norvegicus, UniProt P31652); experiment: Inhibition of [3H]-serotonin uptake in rat whole brain synaptosomes; settings: [3H]-5 HT 50 nM
T2 construct: Whole brain minus cerebella is weighed and homogenized in 9 volumes of ice-cold 0.32 M sucrose; from tissue; host or cells: rat whole brain minus cerebella, crude synaptosomal supernatant (S1)
Method: Inhibition of [^3H]-Serotonin Uptake in Rat Whole Brain Synaptosomes
This assay is used a biochemical screen for compounds which block serotonin (5 HT) uptake, which may be useful as antidepressants and for the treatment of personality disorders such as obsessive compulsive disorder.
as §1, §2
Aerate for 60 minutes with 95% O2/5% CO2, check pH (7.4±0.1). 2. 0.32 M Sucrose: 21.9 g of sucrose, bring to 200 ml. 3. Serotonin creatinine SO4 is obtained from Sigma Chemical Co. A 0.1 mM stock solution is made up in 0.01N HCl. This is used to dilute the specific activity of radiolabeled 5 HT. 4. 5-[1,2-^3H(N)]-Hydroxytryptamine creatinine sulfate (Serotonin), specific activity 20-30 Ci/mmol is obtained from New England Nuclear. The final desired concentration of ^3H-5 HT in the assay is 50 nM. The dilution factor is 0.8. Therefore, the KHBB is made up to contain 62.5 nM [^3H]--5 HT. Add to 100 ml of KHBB.
as §3, with “mM” for “mM stock”, “in” for “in a”
as §4, with “Whole” for “Either whole”, “cerebella” for “cerebella or hypothalamus”, “The” for “TH”, “0° -” for “0°”
• 800 µl KHBB + [^3H]-5 HT. • 20 µl Vehicle or appropriate drug concentration • 200 µl Tissue suspension
(§5) Tubes are incubated at 37°C under a 95% O2/5% CO2 atmosphere for 5 minutes. For each assay, 3 tubes are incubated with 20 µl of vehicle at 0°C in an ice bath. After incubation all tubes are immediately centrifuged at 4000 g for 10 minutes. The supernatant fluid is aspirated and the pellets dissolved by adding 1 ml of solubilizer (Triton® X-100 + 50% EtOH, 1:4 v/v). The tubes are vigorously shaken, decanted into scintillation vials, and counted in 10 ml of Liquicint® scintillation counting cocktail. Active uptake is the difference between cpm at 37°C and 0°C. The percent inhibition at each drug concentration is the mean of three determinations. IC50 values are derived from log-probit analysis.

[3] = biological target: T3, dopamine (DA) uptake (Rattus norvegicus, UniProt P23977); experiment: Inhibition of 3H-dopamine uptake in rat striatal synaptosomes; settings: head says whole brain synaptosomes, method uses striatal synaptosomes, 3H-DA 50 nM
T3 construct: Corpora striata are rapidly removed, weighed and homogenized in 9 volumes of ice-cold 0.32 M sucrose; from tissue; host or cells: rat corpora striata, crude synaptosomal supernatant (S1)
Method: Inhibition of ^3H-Dopamine Uptake in Rat Striatal Synaptosomes
this assay is used to show differential drug effects on dopamine uptake versus nerepppinephrine uptake and to identify therapeutic agents for diseases where the potentiation of dopaminergic activity may be helpful (e.g. Parkinson's Disease).
as §1
1. Krebs-Henseleit Bicarbonate Buffer, pH 7.4 (KHBB): Make a 1 liter batch containing the following salts:
Aerate for 60 minutes with 95% O2/5% CO2, check pH (7.4±0.1). 2. 0.32 M Sucrose: 21.9 g of sucrose, bring to 200 ml. 3. Dopamine HCl is obtained from Sigma Chemical Co. A 0.1 mM stock solution is made up in 0.01N HCI. This is used to dilute the specific activity of radiolabeled 5 HT. 4. 3,4-[8-^3H(N)]-Dihydroxyphenylethylamine (Dopamine), specific activity 4-34 Ci/mmol is obtained from New England Nuclear. The final desired concentration of ^3H-DA in the assay is 50 nM. The dilution factor is 0.9. Therefore, the KHBB is made up to contain 55.5 nM [^3H]-5 DA. Add to 100 ml of KHBB.
as §3, with “1mM” for “1 mM”
as §4, with “Corpora striata are rapidly removed,” for “Either whole brain minus cerebella or hypothalamus is”, “The” for “TH”, “0°-” for “0°”
• 900 µl KHBB + [^3H]-DA. • 20 µl Vehicle or appropriate drug concentration • 100 µl Tissue suspension
as §5, with “Liquiscint®” for “Liquicint®”

T1 sequence (Q63380 1-617): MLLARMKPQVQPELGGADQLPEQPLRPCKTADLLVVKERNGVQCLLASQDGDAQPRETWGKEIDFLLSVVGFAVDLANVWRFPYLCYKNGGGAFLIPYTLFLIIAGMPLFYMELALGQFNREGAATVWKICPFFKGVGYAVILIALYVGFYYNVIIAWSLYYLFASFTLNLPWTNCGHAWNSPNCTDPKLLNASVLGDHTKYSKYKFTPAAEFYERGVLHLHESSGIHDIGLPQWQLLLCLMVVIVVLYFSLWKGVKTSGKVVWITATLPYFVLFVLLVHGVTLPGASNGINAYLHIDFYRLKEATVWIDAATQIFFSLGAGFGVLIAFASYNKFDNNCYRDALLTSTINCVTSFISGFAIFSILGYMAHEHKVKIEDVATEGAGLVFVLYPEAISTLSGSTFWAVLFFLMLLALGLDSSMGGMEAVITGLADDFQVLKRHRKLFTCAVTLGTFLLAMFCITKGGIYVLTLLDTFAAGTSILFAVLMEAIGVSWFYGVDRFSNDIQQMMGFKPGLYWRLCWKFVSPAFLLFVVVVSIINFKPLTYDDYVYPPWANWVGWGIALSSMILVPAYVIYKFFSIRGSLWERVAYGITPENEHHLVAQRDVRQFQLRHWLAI
T2 sequence (P31652 whole entry): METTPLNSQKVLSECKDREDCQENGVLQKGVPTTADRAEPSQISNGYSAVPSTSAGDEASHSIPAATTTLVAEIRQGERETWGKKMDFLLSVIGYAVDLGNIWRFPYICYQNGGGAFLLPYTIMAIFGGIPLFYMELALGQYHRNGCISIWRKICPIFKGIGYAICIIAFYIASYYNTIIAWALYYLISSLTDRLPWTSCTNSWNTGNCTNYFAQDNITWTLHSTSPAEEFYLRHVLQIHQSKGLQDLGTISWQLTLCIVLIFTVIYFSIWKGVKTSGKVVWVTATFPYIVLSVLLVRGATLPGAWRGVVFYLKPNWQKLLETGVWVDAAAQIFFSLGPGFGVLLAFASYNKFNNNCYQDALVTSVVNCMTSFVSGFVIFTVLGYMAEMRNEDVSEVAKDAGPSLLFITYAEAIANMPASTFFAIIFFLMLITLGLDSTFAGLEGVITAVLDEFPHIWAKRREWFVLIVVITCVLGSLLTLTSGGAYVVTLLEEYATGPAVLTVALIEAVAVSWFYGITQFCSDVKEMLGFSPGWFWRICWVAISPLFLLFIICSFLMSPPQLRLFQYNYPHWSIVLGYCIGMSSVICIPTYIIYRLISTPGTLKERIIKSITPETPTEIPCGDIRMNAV
T3 sequence (P23977 whole entry): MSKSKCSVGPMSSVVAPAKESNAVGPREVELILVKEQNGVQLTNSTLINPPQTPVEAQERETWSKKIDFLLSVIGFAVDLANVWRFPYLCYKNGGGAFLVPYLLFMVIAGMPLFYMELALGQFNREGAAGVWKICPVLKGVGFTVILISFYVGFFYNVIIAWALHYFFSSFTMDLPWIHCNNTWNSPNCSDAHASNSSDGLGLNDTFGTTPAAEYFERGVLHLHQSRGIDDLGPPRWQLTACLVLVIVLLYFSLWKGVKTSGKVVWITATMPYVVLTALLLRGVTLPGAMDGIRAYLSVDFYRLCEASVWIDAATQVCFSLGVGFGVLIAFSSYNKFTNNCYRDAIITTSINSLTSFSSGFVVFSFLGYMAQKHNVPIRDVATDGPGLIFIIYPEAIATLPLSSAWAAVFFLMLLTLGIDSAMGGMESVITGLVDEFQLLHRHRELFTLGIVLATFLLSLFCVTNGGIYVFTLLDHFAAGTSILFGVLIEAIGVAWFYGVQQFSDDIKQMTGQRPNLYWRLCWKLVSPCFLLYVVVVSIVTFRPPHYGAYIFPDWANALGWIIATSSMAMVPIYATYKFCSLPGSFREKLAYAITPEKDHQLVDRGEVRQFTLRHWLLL

Structure (SMILES)	Whole brain synaptosomes % inhibition at 3.16 µm NE [1] [%]	Whole brain synaptosomes % inhibition at 3.16 µm 5HT [2] [%]	Whole brain synaptosomes % inhibition at 3.16 µm DA [3] [%]
COc1cc(C(C)=O)ccc1OCCCN1CCC(N2C(c3ccc(Cl)cc3)c3ccccc3S2(=O)=O)CC1 (stereo not drawn) [1-[4-(3-{4-[3-(4-Chlorophenyl)-1,1-dioxo-3H-benzo[d]isothiazol-2-yl]-1-piperidin-1-yl}-propoxy)-3-methoxyphenyl]-ethanone maleate]	55.23	48.78	67.94
O=C(O)/C=C\C(=O)O.O=C1c2ccccc2C(=O)N1CCCN1CCC(N2C(c3ccc(Cl)cc3)c3ccccc3S2(=O)=O)CC1 (stereo not drawn) [2-(3-{4-[3-(4-Chlorophenyl)-1,1-dioxo-3H-benzo[d]isothiazol-2-yl]piperidin-1-yl}propyl)-isoindol-1,3-dione maleate]	28.37	29.02	57.36
O=C(O)/C=C\C(=O)O.O=S1(=O)c2ccccc2C(c2ccc(Cl)cc2)N1C1CCN(CCO)CC1 (stereo not drawn) [2-{4-[3-(4-Chlorophenyl)-1,1-dioxo-3H-benzo[d]isothiazol-2-yl]-piperidin-1-yl}-ethanol maleate]	8.71	3.68	18.71
Cl.O=S1(=O)c2ccccc2C(c2ccc(F)cc2)N1C1CCNCC1 (stereo not drawn) [3-(4-Fluorophenyl)-2-(4-piperidinyl)-2,3-dihydrobenzo[d]isothiazole-1,1-dioxide hydrochloride]	25.02	37.92	30.34
